Key:
[1] = 101 kPa, Liquid, Vibrating tube method
[2] = xn = mol fraction of the nth substance listed; settings: 101 kPa, Liquid, Vibrating tube method, x2 = 0

OCC(O)CO [glycerol]
[1]
Settings | mass density [kg/m3]
278.15 K | 1270.87
288.15 K | 1264.4
293.15 K | 1260.99
298.15 K | 1257.91
308.15 K | 1251.66
323.15 K | 1242.11
333.15 K | 1235.71
348.15 K | 1225.79

O [water]
[1]
Settings | mass density [kg/m3]
274.15 K | 999.9
275.15 K | 999.94
276.15 K | 999.96
277.15 K | 999.97
278.15 K | 999.96
279.15 K | 999.94
280.15 K | 999.9
281.15 K | 999.85
282.15 K | 999.78
283.15 K | 999.7
323.15 K | 988.03
333.15 K | 983.19
348.15 K | 974.84

O [water] + OCC(O)CO
[2]
Settings | mass density [kg/m3]
274.15 K | 999.9
275.15 K | 999.94
276.15 K | 999.96
277.15 K | 999.97
278.15 K | 999.96
279.15 K | 999.94
280.15 K | 999.9
281.15 K | 999.85
282.15 K | 999.78
283.15 K | 999.7
323.15 K | 988.03
333.15 K | 983.19
348.15 K | 974.84

— the NIST ThermoML archive (doi:10.1016/j.tca.2013.07.012)
